# From ChEMBL document CHEMBL1145671, “Cactus Alkaloids. LIII. Coryphanthine and O-Methyl-Candicine, Two New Quaternary Alkaloids from Coryphantha greenwoodii” (J Nat Prod, 1983)
# Where a name gives a salt, the structure may show the parent alone.
# System: not listed separately
# Experiment: (§1) Toxicity against brine shrimp assessed as impaired swimming movements after 24 hrs
# Type: organism-based, Artemia
# Conditions: artemia, in vivo
row,Compound,LC50 at 24 h
1,CN1CCC[C@H]1c1cccnc1 [NICOTINE HYDROCHLORIDE],158 µg/mL
2,C[N+](C)(C)CCc1ccc(O)cc1 [CANDICINE CHLORIDE],923 µg/mL
3,COc1ccc(CC[N+](C)(C)C)cc1,425 µg/mL
4,COC(C[N+](C)(C)C)c1ccccc1 (racemic),368 µg/mL
5,O=C1C[C@@H]2OCC=C3CN4CC[C@]56c7ccccc7N1[C@H]5[C@H]2[C@H]3C[C@H]46 [STRYCHNINE SULFATE],164 µg/mL
6,CO[C@H](C[N+](C)(C)C)c1ccccc1,354 µg/mL

# System: Artemia
# Experiment: as §1
# Type: organism-based
# Conditions: Artemia, 24 h
row,Compound,IC50
1,C[N+](C)(C)CCO.[Cl-] [CHOLINE CHLORIDE],> 1000 µg/mL
2,C[N+](C)(C)CC(O)c1ccccc1.[Cl-] (centres undefined),> 1000 µg/mL

# Same assay, conditions: artemia, in vivo, 24 h
row,Compound,LC50
1,CO[C@H](C[N+](C)(C)C)c1ccccc1.[Cl-] [CORYPHANTHINE CHLORIDE],494 µg/mL
